The results in this text go back to US20210393745A1, “OLIGOMER EXTENDED INSULIN-FC CONJUGATES AND THEIR MEDICAL USE” (Novo Nordisk A/S, priority 2018, published 2021).

A short description of data set [1]: In vivo PK after s.c. dosing, streptozotocin treated rats. Further details: species or system Sprague-Dawley rat. The conditions noted are these: s.c. 30 nmol/kg, mean value. How it is done: Insulin-Fc conjugates were tested in vivo by subcutaneous (s.c.) administration to normal and streptozotocin (STZ) treated male Sprague-Dawley (SD) rats.
The rats were dosed s.c. in the neck region with a dose of 30 nmol/kg of the insulin-Fc conjugates. Blood samples for blood glucose and plasma insulin analysis were collected from the tongue vein up to 10 days post dosing. The insulin-Fc concentrations were measured by immuno-assay (LLOQ=1000 pM) and the resulting half-life values after s.c. dosing are shown in Table 4. The PK profiles for normal rats are shown in FIG. 3 and for streptozotocin treated rats in FIG. 6. Blood glucose (BG) was measured using Biosen S Line (EKF) and the BG and baseline corrected BG profiles for normal rats are shown in FIGS. 1 and 2 and for streptozotocin treated rats in FIGS. 4 and 5 respectively.

The target in another data set is T1, hFcRn ectodomain (Homo sapiens, UniProt P55899).
T1 construct: the hFcRn ectodomain diluted at 4000 nM with 2-fold serial dilutions was injected
The data set is described as follows: SPR analysis of the binding of hFcRn ECD. The conditions noted are these: pH 6.0, 25° C., steady-state fitting; read-out: Kn (μM), binding of hFcRn ECD. How it is done: First, the three Insulin-Fc samples diluted at 10 ug/ml and the wild-type hIgG4 Fc (produced in HEK293 cells, i.e. glycosylated) diluted at 30 ug/ml in 10 mM sodium acetate (pH 4.5) (GE Healthcare, catalogue #BR100350) were immobilized on a CMD50L sensor chip (XanTec Bioanalytics GmbH) at spot 2 or 4 at 70-90 RU in each used flow cell via amine coupling with 1×HBS-EP+ (pH 7.4) (GE Healthcare, catalogue #BR-1006-69) used as the running buffer. The wild-type hIgG4 Fc was used as the control sample. In each used flow cell, spots 2, 3 and 4 were activated by 100 mM N-hydroxysuccinimide (NHS) and 400 mM N-ethyl-N′-dimethylaminopropyl carbodiimide hydrochloride (EDC) mixed at equal volume before the immobilization and blocked by 1 M ethanolamine hydrochloride-NaOH (pH 8.5) after the immobilization. NHS, EDC and ethanolamine were obtained from the Amine Coupling Kit, type 2 (GE Healthcare, catalogue #BR100633).
Next, the hFcRn ectodomain diluted at 4000 nM with 2-fold serial dilutions was injected through each used flow cell for 60 sec to allow for binding of the hFcRn ectodomain to the Insulin-Fc conjugates and wild-type hIgG4 Fc samples immobilized on the sensor chip, followed by dissociation for 180 sec. 1×PBS-EP+ (pH 6.0) was used as the dilution buffer for the hFcRn ectodomain and the running buffer in each binding cycle at the flow rate of 30 ul/min. After each binding cycle, the sensor chip was regenerated with a 60 sec injection of 1×PBS-EP+ (pH 7.4) at the flow rate of 30 ul/min. The 1×PBS-EP+ (pH 7.4) buffer was prepared by diluting 0.5 M EDTA (pH 8.0) (Invitrogen, catalogue #15575038) at 3 mM into 1×PBS-P+ (GE Healthcare, catalogue #28995084). The 1×PBS-EP+ (pH 6.0) buffer was prepared by adjusting the pH of the 1×PBS-EP+ buffer from 7.4 to 6.0 using ˜10 M HCl. The affinities (equilibrium dissociation constants, KD) were determined via steady-state fitting of the binding curves using the 1:1 binding model in Biacore 4000 Evaluation Software 1.0 (GE Healthcare).

A further data set relates to primary rat adipocytes. Nature of the data set: Lipogenesis in rat adipocytes. In kind it is cell-based. The following applies: relative to human insulin. How it is done: As a measure of in vitro potency of the insulin conjugatess of the invention, lipogenesis can be used. Primary rat adipocytes are isolated from the epididymale fat pads and incubated with 3H-glucose in buffer containing e.g. 0.1% fat free HSA and either standard (human insulin, HI) or insulin conjugates of the invention. The labelled glucose is converted into extractable lipids in a dose dependent way, resulting in full dose response curves. The result is expressed as relative potency (%) with 95% confidence limits of insulin of the invention compared to standard (HI).

T1 sequence (P55899 24-297 limits assumed): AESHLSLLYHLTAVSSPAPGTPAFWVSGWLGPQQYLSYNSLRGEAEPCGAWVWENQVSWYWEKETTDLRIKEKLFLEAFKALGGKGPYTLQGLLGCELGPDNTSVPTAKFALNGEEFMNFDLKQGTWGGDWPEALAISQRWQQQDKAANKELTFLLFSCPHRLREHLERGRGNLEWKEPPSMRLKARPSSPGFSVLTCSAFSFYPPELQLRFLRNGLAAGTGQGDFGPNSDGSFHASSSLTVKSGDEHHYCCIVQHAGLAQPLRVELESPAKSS
T1 sequence (P61769 21-119 partner): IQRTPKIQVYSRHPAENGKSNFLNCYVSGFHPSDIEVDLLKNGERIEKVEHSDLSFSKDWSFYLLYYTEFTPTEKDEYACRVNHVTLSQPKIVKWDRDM

As for “(A14E, A21G, A22(GQEP)11, A66G, A67Q, A68E, A69K^, A70P, B16H, B25H, B29R, desB30 human insulin)/(226A, 227G, 228P, 234A, 235K, 297E, 315Q, 384Q, des447 hIgG4-Fc(226-447))3,5-bis[(2-acetyl)amino]benzoyl Conjugate [Example 5.2]”, in data set [1], the “PK STZ rat [T1/2, s.c. (h)]” value is 39 h. Also, on hFcRn ectodomain, the Kd was 1.6 µM. Moreover, in the data set with primary rat adipocytes, the “Lipogenesis Rel. pot. (%)” value is given as 1.14%.

As to “(A14E, A21G, A22(GQEP)12, A70K^, A71P, B25H, B29R, desB30 human insulin)/(226A, 227G, 228P, 234A, 235K, 297E, 315Q, 384Q, des447 hIgG4-Fc(226-447))3,5-bis[(2-acetyl)amino]benzoyl Conjugate [Example 5.1]”, the “PK STZ rat [T1/2, s.c. (h)]” value in data set [1] is 24 h. For the same substance, the Kd at hFcRn ectodomain stood at 1.5 µM. Also, the “Lipogenesis Rel. pot. (%)” value in the data set on primary rat adipocytes amounted to 2.86%.
